# Source: patent US20140335203A1, “SYNERGISTIC BLENDS OF ANTIMICROBIALS USEFUL FOR CONTROLLING MICROORGANISMS IN INDUSTRIAL PROCESSES” (Hercules Incorporated, priority 2013, published 2014)
# Where “and” joins values, the source holds several entries; their conditions need not be identical. Equal values may be shown once. Read-outs that look alike come from different tables or passages of the source.
# How the values were obtained:
# Lactobacillus plantarum [1] = assay: Minimal Inhibitory Concentration (MIC), two-fold dilution series in 96 well microplate, antimicrobial used alone; assay type: cell-based; details: pH 6; for MIC: Lactiplantibacillus plantarum
# Excerpt: While there are various methods known to individuals skilled in the art for measuring levels of antimicrobial activity, in the following examples the endpoint used is known as the Minimal Inhibitory Concentration, or MIC. This is the lowest concentration of a substance or substances which can achieve complete inhibition of growth.
# In order to determine the Minimal Inhibitory Concentration, a two-fold dilution series of the antimicrobial is constructed with the dilutions being made in growth media. The dilutions are made in a 96 well microplate such that each well has a final volume of 280 μl of media and antimicrobial. […] After the dilution series is constructed the wells receive an inoculum of microbe suspended in growth media such that the final concentration of microbes in the well is ˜5×10^5 cfu/ml. In these examples the test microbe used is Lactobacillus plantarum. The cultures are incubated at an appropriate temperature for 18-24 hours, and the wells scored as positive or negative for growth based on a visual examination for turbid wells. A turbid well indicates growth has occurred.
# Minimal inhibitory concentrations were determined for both chlorine dioxide and citric acid at pH 6 using the protocol described above with Lactobacillus plantarum as the test microbe. Checkerboard synergy plates were constructed as described, the wells inoculated to a final concentration of ˜5×10^5 cfu/ml, incubated for 18-24 hours, and then scored visually for growth/no growth. […] Minimal inhibitory concentrations were determined for both chlorine dioxide and sodium propionate at pH 6 using the protocol described above with Lactobacillus plantarum as the test microbe. Checkerboard synergy plates wore constructed as described, the wells inoculated to a final concentration of ˜5×10^5 cfu/ml, incubated for 18-24 hours, and then scored visually for growth/no growth.
# Minimal inhibitory concentrations were determined for both chlorine dioxide and potassium benzoate at pH 6 using the protocol described above with Lactobacillus plantarum as the test microbe. Checkerboard synergy plates were constructed as described, the wells inoculated to a final concentration of ˜5×10^5 cfu/ml, incubated for 18-24 hours, and then scored visually for growth/no growth.
# Minimal inhibitory concentrations were determined for both chlorine dioxide and ascorbic acid at pH 6 using the protocol described above with Lactobacillus plantarum as the test microbe. Checkerboard synergy plates were constructed as described, the wells inoculated to a final concentration of ˜5×10^5 cfu/ml, incubated for 18-24 hours, and then scored visually for growth/no growth.
# Lactobacillus plantarum [2] = assay: Checkerboard synergy plates (MIC in combination, Synergy Index by Kull et al.); assay type: cell-based; details: pH 6
# Procedure: Minimal inhibitory concentrations were determined for both chlorine dioxide and citric acid at pH 6 using the protocol described above with Lactobacillus plantarum as the test microbe. Checkerboard synergy plates were constructed as described, the wells inoculated to a final concentration of ˜5×10^5 cfu/ml, incubated for 18-24 hours, and then scored visually for growth/no growth. […] Minimal inhibitory concentrations were determined for both chlorine dioxide and sodium propionate at pH 6 using the protocol described above with Lactobacillus plantarum as the test microbe. Checkerboard synergy plates wore constructed as described, the wells inoculated to a final concentration of ˜5×10^5 cfu/ml, incubated for 18-24 hours, and then scored visually for growth/no growth. […] Minimal inhibitory concentrations were determined for both chlorine dioxide and potassium benzoate at pH 6 using the protocol described above with Lactobacillus plantarum as the test microbe. Checkerboard synergy plates were constructed as described, the wells inoculated to a final concentration of ˜5×10^5 cfu/ml, incubated for 18-24 hours, and then scored visually for growth/no growth. […] Minimal inhibitory concentrations were determined for both chlorine dioxide and ascorbic acid at pH 6 using the protocol described above with Lactobacillus plantarum as the test microbe. […]
# fermentation = details: cited from earlier work
# Weisella confusa = details: cited from earlier work
compound,measurement,setting,value
"O=C1O[C@H]([C@@H](O)CO)C(O)=C1O [Ascorbic Acid, ascorbic acid]",MIC,"Lactobacillus plantarum [1]; read-out: Ascorbic Acid MIC (QB), used alone",10 mg/mL
"O=C(O)CC(O)(CC(=O)O)C(=O)O [Citric Acid, citric acid]","Citric Acid MIC (Qb), used in combination",Lactobacillus plantarum [2]; in combination with ClO2,"390-12,500 ppm"
same,MIC,"Lactobacillus plantarum [1]; read-out: Citric Acid MIC (QB), used alone",100 mg/mL
same,"Citric Acid MIC (QB), used alone",Lactobacillus plantarum [1],100000 ppm
"[O][Cl+][O-] [ClO2, chlorine dioxide]","ClO2 MIC (Qa), used in combination",Lactobacillus plantarum [2]; in combination with citric acid,15-60 ppm
same,"ClO2 MIC (QA), used alone",Lactobacillus plantarum [1]; Table 1 (citric acid series),100 ppm
same,"ClO2 MIC (QA), used alone",Lactobacillus plantarum [1]; Table 2 (sodium propionate series),115 ppm
same,"ClO2 MIC (QA), used alone",Lactobacillus plantarum [1]; Table 3 (potassium benzoate series),115 ppm and 130 ppm
same,"ClO2 MIC (QA), used alone","Lactobacillus plantarum [1]; Table 3 (potassium benzoate series), listed as chlorine dioxide",115 ppm and 130 ppm
same,"ClO2 MIC (QA), used alone",Lactobacillus plantarum [1]; Table 4 (ascorbic acid series),67.5 ppm
"O=C([O-])c1ccccc1.[K+] [Potassium Benzoate, potassium benzoate]","Potassium Benzoate MIC (QB), used alone",Lactobacillus plantarum [1],100000 ppm
same,"Potassium Benzoate MIC (QB), used alone",Lactobacillus plantarum [1]; listed as potassium benzoate,"100,000 ppm"
"CCC(=O)[O-].[Na+] [Sodium Propionate, sodium propionate]","Sodium Propionate MIC (QB), used alone",Lactobacillus plantarum [1],100000 ppm
same,"Sodium Propionate MIC (QB), used alone",Lactobacillus plantarum [1]; listed as sodium propionate,"100,000 ppm"
Virginiamycin,concentration that will suppress fermentation,fermentation,over 2 mg/L
same,concentration required to inhibit growth of Weisella confusa,Weisella confusa,over 25 mg/L
